Measured values from patent publication US9045490B2, “Use of parthenolide derivatives as antileukemic and cytotoxic agents” (University of Kentucky, priority 2003, dated 2015).
Where two headings read alike, the source gives them in different places.

Key:
[1] = Oral bioavailability in mice: plasma level by LC-MS; format: in vivo; details: mouse, 40 mg/kg oral, read-out: plasma level one hour after oral gavage
Description: Preliminary in vivo work was conducted to determine the bioavailability and toxicity of this agent in mice.

[2] = system: breast cancer cell line hbl-100; experiment: Clonogenic assay; format: cell-based; details: hbl-100, 2 μm concentration (parthenolide: similar dosage ranges)
[3] = system: breast cancer cell line 436; experiment: Clonogenic assay; format: cell-based; details: 436 cells, 2 μm concentration (parthenolide: similar dosage ranges)
[4] = system: normal hematopoietic stem cells; experiment: Human-mouse xenograft: NOD/SCID engraftment of normal donor cells treated in vitro; format: in vivo; details: 7.5 micromolar in vitro for 12-18 hours, bone marrow analysed after 6-8 weeks (CD45)
Description: (§1) To assess the effect of parthenolide on primary human stem cell populations, experiments were conducted using transplantation into immune deficient NOD/SCID mice. […] For each experiment, cryopreserved mononuclear cell specimens from normal or AML donors were thawed, and treated in vitro with 7.5 micromolar parthenolide for 12-18 hours. Following culture, 5-10 million cells/animal were injected intravenously into sublethally irradiated (300 Rad) NOD/SCID mice. After 6-8 weeks, animals were sacrificed and bone marrow was analyzed for the presence of human cells using flow cytometry as previously described (Guzman et al., Proc Natl Acad Sci USA 2002; 99: 16220-162253). Human specific antibodies for CD45 were used to assess the level of total engraftment.

[5] = system: breast cancer cell line mdl-231; experiment: Clonogenic assay; format: cell-based; details: mdl-231, 2 μm concentration (parthenolide: similar dosage ranges)
[6] = system: human monocyte cell line THP-1; experiment: cDNA array analysis of inflammation genes; format: cell-based
Description: Total cellular RNA was extracted from the human monocyte cell line THP-1 under three conditions 2 hours after Time 0:
1) Control was added at Time 0 […]
RNA was extracted using RNeasy Min Kit (Qiagen, USA) according to the manufacturer's instructions. The Human Drug Targets for Inflammation and Immunomodulation Q series GE array kit (HS-048-12) was obtained from SuperArray Bioscience Corporation (Frederick, Md.). The kit determines expression of 96 genes that are associated with inflammation. RNA from respective samples was used as a template to generate biotin labeled cDNA probes using GEArray Ampolabelling RT kit (SuperArray, Bioscience Corp., USA). The cDNA probes corresponding to the mRNA population were then denatured and hybridization was carried out in GEHyb solution to nylon membranes spotted with gene specific fragments. Membranes were then washed in 2×SSC, 1% SDS twice for 15 minutes each, followed by 0.1 SSC, 0.5% SDS twice for 15 minutes each. Chemiluminescence was used to visualize the expression levels of each transcript and the results were quantified with the GEArray Analyzer. The change in a given gene transcript was estimated by normalizing the signal intensities with the signal derived from PPIA and with minimum background subtraction.

[7] = system: MDA-MB-231 breast cancer cells; experiment: TRAIL induced apoptosis assay (carboxyfluorescein-FLICA, FACScan); format: cell-based; details: 2 or 5 μM pre-treatment two hours, then TRAIL 5 ng/ml or TRAIL-RII antibodies 10 ng/ml, 48 hours
Description: MDA-MB-231 breast cancer cells (2×10^5 cells in 60 mm plates) were treated first with 2 or 5 μM of DMAPT (LC-1). After two hours, TRAIL (TNF related-apoptosis-inducing-ligand, 5 ng/ml) or TRAIL-RII-activating antibodies (10 ng/ml) were added. After 48 hours of TRAIL or TRAIL-RII antibody treatment, cells were harvested and apoptosis was measured using carboxyfluorescein-FLICA assay. Briefly, both attached and floating cells were collected by trypsinization, incubated with carboxyfluorescein-labeled pan-caspase inhibitor FAM-VAD-FMK for 2 h at 37° C. Labeled cells were rinsed twice in PBS and resuspended in 300 μl of PBS containing 0.3 μg of propidium iodide. Apoptotic cells were identified by FACScan analysis. […] FAM-VAD-FMK stains apoptotic cells (upper left). Apoptotic cells that have lost plasma membrane integrity are stained by both FAM-VAD-FMK and propidium iodide (upper right). Necrotic cells are stained only by propidium iodide (lower right). MDA-MB-231 cells are relatively resistant to TRAIL.

[8] = system: primary acute myelogenous leukemia (AML) cells; experiment: Assay for antileukemic activity (Annexin V/7-AAD apoptosis analysis by flow cytometry); format: cell-based; details: 24 hours of culture
Description: For apoptosis analysis, one million primary acute myelogenous leukemia (AML) cells were washed with cold PBS and resuspended in 200 microliters of Annexin binding buffer (10 mM HEPES/NaOH pH 7.4; 140 mM NaCl; 2.5 mM CaCl2). Annexin V-FITC (Pharmingen) and 0.25 mg/mL 7-AAD (7-aminoactinomycin D, Molecular Probes, CA) were added and the tubes were incubated at room temperature in the dark for 15 minutes. Cells were then diluted with 200 microliters of Annexin binding buffer and analyzed immediately by flow cytometry. Viable cells were identified as failing to label with Annexin V or 7-AAD. Cells beginning to die label with Annexin V, and as membrane integrity is lost, will also label with 7-AAD. […] Data are normalized to untreated control specimens. The data are in Table 1 for aminoparthenolide derivatives and Table 2 for the salts of some aminoparthenolides.

[9] = system: AML cells (AML stem cell compartment); experiment: Human-mouse xenograft: NOD/SCID engraftment of AML cells treated in vitro; format: in vivo, human cells in NOD/SCID mice; details: 7.5 micromolar in vitro for 12-18 hours, bone marrow analysed after 6-8 weeks (CD45)
Description: as §1

[10] = DMAPT (10 micromoles) pre-treatment for 2 hours then 1 hour treatment of LPS (10 nM)

Compound: C/C1=C\CC[C@@]2(C)O[C@@H]2[C@H]2OC(=O)[C@H](CN(C)C)[C@@H]2CC1 [DMAPT, 11S,11,13-Dihydro,13-dimethylaminoparthenolide]
- concentration at 1 h ([1]; LC-MS, average of 5 mice): ~2500 ng/mL
- concentration at 1 h ([1]; conversion of the ng/mL value): 8 µM
- inhibition of proliferation [2]: almost complete inhibition
- inhibition of proliferation [3]: almost complete inhibition
- level of engraftment of treated normal cells in NOD/SCID mice [4]: no significant effects
- inhibition of proliferation [5]: almost complete inhibition
- % Change of Genes: Intercellular Adhesion Molecule 1 [6, 10]: 58%
- % Change of Genes: Nitric oxide synthase 2A (inducible) [6, 10]: 48%
- % Change of Genes: Tumor necrosis factor (ligand) superfamily, member 5 [6, 10]: 23%
- transcription of tumor necrosis factor (TNF), relative to control ([6]; pretreatment with DMAPT, then LPS): 2 % of control
- sensitisation to TRAIL or TRAIL-RII activating antibody-induced apoptosis [7]: became sensitive
- Antileukemic activity ([8]; 5 μM): 5 μM, 31%
- Antileukemic activity ([8]; 10 μM, normalized to untreated control): 10 μM, 90%
- Antileukemic activity ([8]; 20 μM): 20 μM, 95%
- level of engraftment of treated AML cells in NOD/SCID mice [9]: strong reduction
